Assay in all cases: DTP human tumour cell line panel, 48 h
Assay [1] has as its system SR leukemia.
Assay [2] deals with HCT-15 colon.
Assay [3] concerns SK-OV-3 ovarian.
For assay [4], the system named is DU-145 prostate.
Assay [5] relates to CAKI-1 renal.
Assay [6] concerns SF-539 CNS.
The test system of assay [7] is UO-31 renal.
Assay [8] relates to HCC-2998 colon.
In assay [9] the test system is HOP-62 NSCLC.
The subject of assay [10] is RXF 393 renal.

The structures appear in SMILES notation. Several values for one entry are separate records, joined by “and”; a condition that tells them apart may be missing. Equal values may be shown once.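 Protocol summary: plate cells (96-well), add compound at 5 concentrations, incubate 48 h, interpolate endpoints linearly. GI50: concentration for 50% inhibition of growth. TGI is the concentration that stops growth completely.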 Bounds are passed on as bounds.

Consider `COc1ccc2c(ccc3oc([N+](=O)[O-])cc32)c1`, for which the GI50 (usually the concentration at which growth is held to half of that of the control) in assay [1] is 0.0748 µM; in assay [2] it was 0.221 µM; in [3] it was 0.231 µM; in assay [4], 0.191 µM; in [5], 0.128 µM; in [6], 0.225 µM. Also, the GI50 was 0.224 µM in assay [7], 0.177 µM in [8], 0.412 µM in assay [9] and 0.0702 µM in assay [10]. Besides, the TGI (usually the concentration at which net growth stops) in [1] is 17.6 µM; in assay [2], 1.53 µM; in assay [3], 1.84 µM; in [4] it was 1.14 µM; in [5], 0.755 µM; in [6], 0.595 µM. Further, the TGI in [7] was found to be 0.763 µM; in [8] it was 0.418 µM; in [9] it was 2.48 µM; in assay [10], 0.223 µM.

For `COc1cc(NC(=O)c2cc3ccccc3cc2O)c(OC)cc1Cl`, the GI50 in assay [1] was 2.02 µM; in assay [2], 1.95 µM; in assay [3] it was 1.39 µM; in assay [4], 2.67 µM; in [6], 2.31 µM; in [7] it was 1.16 µM. Further, the GI50 was 2.68 µM in assay [8], 1.44 µM in assay [9] and 2.24 µM in assay [10]. Further, the TGI came out at 14.7 µM in assay [1]; 8.4 µM in assay [2]; 3.94 µM in assay [3]; 8.07 µM in [4]; 3.76 µM in [5]; 7.15 µM in assay [6]. In addition, the TGI is above 24.9 µM in assay [7], 7.72 µM in assay [8], 4.7 µM in [9] and 8.01 µM in assay [10].

In the case of `NC1=CC(=O)C(=O)c2ccccc21`, the GI50 in assay [1] is 23.3 µM; in assay [2], 25.1 µM; in [3], 47.6 µM; in assay [4], 17.9 µM; in assay [5], 19.7 µM; in assay [6], 21.5 µM. Moreover, the GI50 in [7] was 11.5 µM; in assay [8] it was 43.9 µM; in assay [9], 18 µM; in [10], 24.3 µM. Besides, the TGI was above 100 µM in assay [1]; above 100 µM in [2]; above 100 µM in [3]; 45.4 µM in [4]; 53.3 µM in [5]; 40.9 µM in [6]. The TGI was 35.6 µM in assay [7], above 100 µM in assay [8], 40.7 µM in assay [9] and 71.5 µM in assay [10].

Take `N#Cc1cc2c(=S)[nH]c(=S)[nH]c2nc1SCc1ccccc1`: the GI50 in [1] was 41.3 µM; in assay [2], 33.4 µM; in assay [3], above 100 µM; in assay [4], 82.9 µM; in assay [5], 10.1 µM; in [6] it was 57.1 µM. In addition, the GI50 in assay [7] was 44.8 µM; in assay [8], 24.6 µM; in [9], 63.2 µM; in assay [10], 31.8 µM. In addition, the TGI was above 100 µM in [1]; above 100 µM in assay [2]; above 100 µM in assay [3]; above 100 µM in [4]; 76.8 µM in [5]; above 100 µM in [6]. For the same molecule, the TGI in [7] is above 100 µM; in assay [8], 79 µM; in [9], above 100 µM; in [10], above 100 µM.

For `COc1ccc2c3c1OC1C4(CCC5C(C2)N(CC2CC2)CCC351)OCCO4` (centres undefined), the TGI in assay [1], in assay [2], in assay [3], in assay [4], in [5] and in [7] was above 100 µM throughout. Moreover, the TGI in [8], in [9] and in assay [10] was above 100 µM in each case.

On to `CC[C@H](C)C(=O)O[C@H]1C[C@@H](C)C=C2C=C[C@H](C)[C@H](CC[C@@H]3C[C@@H](O)CC(=O)O3)[C@H]21`, for which the GI50 in assay [1] was 3 µM and 3.5 µM; in [2], 5.46 µM and 1.47 µM; in assay [3], 7.58 µM and 6.68 µM; in [4], 43.8 µM and 35.5 µM; in assay [5] it was 2.14 µM and 1.9 µM; in [7] it was 11 µM and 4.7 µM. Also, the GI50 in assay [8] is 26.3 µM and 25.1 µM; in [10], 3.48 µM. Also, the TGI was 17.3 µM and 25.4 µM and > 30 µM in assay [1]; above 100 µM in assay [2]; above 100 µM in assay [3]; above 100 µM in assay [4]; 6.59 µM and 6.21 µM and 4.78 µM in assay [5]; 80.7 µM and 29.6 µM and 14.2 µM in [7]. Besides, the TGI is above 100 µM in assay [8]; above 100 µM in [9]; 31.8 µM and 13.8 µM and 17.3 µM in [10].

As to `CC(NNC(=S)N1CCN(c2ccccn2)CC1)c1cccc[n+]1[O-]` (centres undefined), the TGI is 96.1 µM in assay [1]; above 100 µM in [2]; above 100 µM in assay [4]; above 100 µM in assay [5]; 84.2 µM in assay [6]; 82.3 µM in [7]. The TGI in assay [8], in assay [9] and in assay [10] was above 100 µM in each case.

Values taken from PubChem BioAssay (NCI).
